Test results from US20080027072A1, “Potentiation of MC4 receptor activity” (AMPLA Pharmaceuticals, Inc., priority 2006, published 2008).

Tests used:
MC4 receptor [1] = target: T1, MC4 receptor (Homo sapiens, UniProt P32245); test: Single-well kinetics of the αMSH response (FIGS. 9A-9E); format: cell-based; parameters: expressed in transfected cells
Description: FIGS. 9A-9E show response kinetics from single-well assays. The response was initiated by αMSH with or without Compound 1. […] Whereas at 1 μM and 300 nM, αMSH onset and peak were increased and sustained. The onset and peak response increased with 3 μM and 10 μM concentrations of Compound 1 at all concentrations of αMSH.

MC4 receptor [2] = target: T1, MC4 receptor; test: Binding experiments with the MC4 receptor inverse agonist AgRP (FIG. 6); parameters: expressed in transfected cells
MC4 receptor [3] = target: T1, MC4 receptor; test: ELISA-based cAMP assay in HEK293 cells stably expressing human MC4 receptors; format: cell-based; parameters: expressed in transfected cells; host or cells: HEK293 stably expressing human MC4 receptor
Description: ELISA-based cAMP assay was used to determine ligand-induced cAMP accumulation in HEK293 cells stably expressing human MC4 receptors in 96-well plate format. Compounds and cAMP standards were diluted in DMEM (without FBS and phenol red) containing 1 mM IBMX. Cells were plated in T-75 flasks and cultured for 24 h before use. Cells were removed from tissue culture flasks using enzyme-free cell dissociation buffer, washed and resuspended in DMEM (without FBS and phenol red) containing 1 mM IBMX at a density of 1×10^6 cells/ml. […] After incubation for 1 h, 50 μl of lysis buffer (0.5% NP-40 in TBS) was added, and incubated for 30 min. After adding rabbit anti-cAMP antibody (Sigma) diluted in TBST (TBS containing 0.05% Tween 20) (25 μl/well) and incubating for 30 min, 25 μl of cAMP-HRP conjugate dilution (in TBST) was added, and incubated for another 1 h. The plate was washed 6 times with TBST. To each well 200 μl of substrate (SuperSignal ELISA Pico Chemiluminesent substrate, Pierce, #37070) was added. The chemiluminescence activity was measured by a luminescence plate reader (NOVAstar, BMG Labtech). cAMP amount for each sample was estimated from cAMP standard curve.

[4] = target: T2, human Melonocortin-4 (MC4) receptor (Homo sapiens, UniProt P32245); test: α-MSH dose-response, intracellular Ca2+ (Indo-1) flow cytometry (DSIS) in clonal MC4 cells, +/- compound; format: cell-based; conditions: compound at a concentration of 1-10 μM
T2 construct: expressed in transfected cells; host or cells: HEK293 (ATCC), G418-selected, FACS-sorted clonal cMC4 line
T2 sequence (P32245 whole entry): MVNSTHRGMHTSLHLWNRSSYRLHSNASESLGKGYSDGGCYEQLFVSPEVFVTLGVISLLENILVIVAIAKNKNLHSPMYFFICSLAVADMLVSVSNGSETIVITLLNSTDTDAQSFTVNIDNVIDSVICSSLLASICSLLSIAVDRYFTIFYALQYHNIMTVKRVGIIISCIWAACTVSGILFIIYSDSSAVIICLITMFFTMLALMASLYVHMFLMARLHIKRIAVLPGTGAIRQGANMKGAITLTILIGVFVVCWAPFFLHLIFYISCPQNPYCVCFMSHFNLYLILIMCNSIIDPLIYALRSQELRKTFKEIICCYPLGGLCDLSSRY
Description: The cMC4 and Control Cells were plated 24-48 hours in advance, and were harvested with trypsin at ˜80% confluency. Cells were then centrifuged and resuspended two times in Hybridoma Media, the final time at a concentration of 1×10^6 cells/mL. Both cell lines were then loaded with 2 mM of Indo-1 plus 3 μg/mL Biotin-X DHPE and then were incubated for 1 hour on a rotator at room temperature. Cells were washed two times and resuspended at a concentration of 1×10^6 cells/mL in Hybridoma Media. The cMC4 cell line then got 2 μg/ml of Alexa 488-streptavidin (Invitrogen/Molecular Probes). Cells were incubated for an additional 30 minutes on a rocker at room temperature. […]
The probe-loaded cMC4 and Control cell mixture was placed in the Cell Suspension System on the DSIS where they were continuously rocked to keep them in a suspended state. […] The DSIS software, NVS Sampler, recorded a timing file and the CyAn software, Summit, recorded a data file. These two files were then compiled and analyzed by NVS Analyzer (see below) to determine the percent of cells that responded to each concentration. The data were transferred to GraphPAD Prism (GraphPad Software, San Diego, Calif.) for a non-linear regression curve fit that determined the EC50. […]
When the screen was complete, the data files and the timing files were analyzed using NVS Analyzer. […]

[5] = tested on: diet-induced obese male MC4 knockout C57BL/6J mice; test: Food intake and body weight, diet-induced obese MC4 knockout mice; format: in vivo; conditions: 40 mg/kg oral
Description: (§1) Mice were dosed at 40 mg/kg for two days with vehicle or test drug. Body weight and food and water intake were recorded daily.
(§2) The test compound was ground while being diluted in 1% methylcellulose, and the final solution was sonicated to give a uniform suspension suitable for dosing. Drug solutions were made up fresh each day 1-2 h before dosing and were administered using a dose volume in the range of 1-3 ml/kg.

MC4 receptor [6] = target: T1, MC4 receptor; test: Competition ligand binding assay with [125I]-NDP-α-MSH, HEK293 cell membranes; parameters: expressed in transfected cells; host or cells: HEK293 stably expressing human MC4 receptor
Description: The binding was carried out at room temperature for another 2 h. […] Binding was terminated by addition of cold binding buffer and filtration on Whatman GF/B glass-fiber filters using a sampling manifold. The filters were washed 6 times with cold binding buffer and air-dried overnight. The radioactivity was quantified on a TopCounter after adding scintillation fluid. […] Data were analyzed by non-linear regression using program GraphPAD Prism (FIG. 5).

[7] = tested on: diet-induced obese male wild-type C57BL/6J mice; test: Food intake and body weight, diet-induced obese wild-type mice; format: in vivo; conditions: 40 mg/kg oral, day 2, wild-type
Description: as §1, §2

[8] = tested on: diet-induced obese male C57BL/6J mice; test: 28-day body weight and food intake study in diet-induced obese mice; format: in vivo; conditions: day 29
Description: Sibutramine, which is currently used clinically, and rimonabant, which has recently received regulatory approval for the management of obesity were used as reference compounds.
C57BL/6J mice (7-8 weeks of age) were ordered from Charles River, Margate, Kent. Mice were group housed in polypropylene cages with free access to a high fat diet (D12451 45% of Kcal derived from fat; Research Diets, New Jersey, USA) and tap water at all times. Animals were maintained at 21±4° C. and 55±20% humidity on a normal phase 12 h light-dark cycle (lights on 04:30 h)
Animals were exposed to the high fat diet for 16 weeks. During this time body weight was recorded weekly. At the end of 14 weeks animals were singly housed in polypropylene cages for a further two week period (weeks 14-16) and placed on reverse phase lighting (lights off for 8 h from 9.30-17.30 h) during which time the room was illuminated by red light. Animals were dosed with vehicle orally throughout the baseline period. Body weight and food and water intake was recorded daily. Towards the end of the baseline period animals were allocated to groups. Upon completion of the baseline period, mice were dosed for 28 days with vehicle or test drug.
Body weight and food and water intake were recorded daily. Following drug administration the animals were examined and any overt behavior was recorded. For all dosing, the morning session was timed such that approximately half the mice were dosed at the time of lights out (09:30).
The test compounds were dissolved in 1% methylcellulose. Drug solutions were made up fresh each day 1-2 h before dosing and were administered using a dose volume in the range of 1-3 ml/kg. Drug doses were expressed as free base.
Resulting body weights, food intake and water intake were expressed as mean values±SEM, and the SEMs are calculated from residuals of the statistical model. Body weight data was analysed by ANCOVA with Day 1 as covariate followed by appropriate comparisons (two-tailed) to determine significant differences from the control group. […] Daily food and water intake data was analysed by ANOVA.

T1 sequence (P32245 whole entry): as above

OC1(c2ccc(Cl)cc2)CCN(Cc2c[nH]c3ccccc23)CC1 [Compound 1]
onset and peak response to αMSH (MC4 receptor [1]; 3 μM and 10 μM Compound 1, all concentrations of αMSH): increased
activity induced by the compound itself (MC4 receptor [1]; 10 μM Compound 1, 100 nM and 30 nM αMSH (FIG. 9E)): low level activity
maximum peak response to αMSH (MC4 receptor [1]; low concentrations of Compound 1): did not appreciably increase
dissociation of AgRP from the MC4 receptor (MC4 receptor [2]): increases the dissociation
effect on AgRP activity (MC4 receptor [3]; FIG. 8, cAMP): attenuates
effect on α-MSH activity (MC4 receptor [3]; FIG. 8, cAMP): potentiates
shift in the EC50 of α-MSH [4]: left shift
body weight as compared to vehicle [5]: did not show a similar decrease
reduction in food intake as compared to vehicle [5]: did not show a similar reduction
EC50 (MC4 receptor [6]): 3.96 µM
body weight as compared to vehicle [7]: statistically significant decrease
reduction in food intake as compared to vehicle [7]: ~40%

Clc1ccc(N2CCN(Cc3c[nH]c4ncccc34)CC2)cc1 [Compound 2]
effect on the response of NDP-α-MSH (MC4 receptor [3]; cAMP accumulation): potentiate
shift in the EC50 of α-MSH [4]: left shift
EC50 (MC4 receptor [6]): 252 µM

Cc1c(C(=O)NN2CCCCC2)nn(-c2ccc(Cl)cc2Cl)c1-c1ccc(Cl)cc1 [Rimonabant]
reduction of body weight ([8]; 10 mg/kg oral): 15%
weight reduction as compared to vehicle, significance ([8]; 10 mg/kg oral): statistically significant weight reduction

CC(C)CC(N(C)C)C1(c2ccc(Cl)cc2)CCC1 (stereo not drawn) [Sibutramine]
reduction of body weight ([8]; 20 mg/kg oral): 2%
